# Patent US20160106110A1, “COMPOSITIONS AND METHODS FOR ENHANCING GERMINATION” (CORNELL UNIVERSITY, priority 2013, published 2016)
# Assays:
# [1] = test system: TrigoCor spores; assay: Terbium chloride (DPA release) spore germination assay at 37° C., 10 mM germinant (Example 1); assay type: cell-based, Bacillus subtilis var. amyloliquefaciens; conditions: for Percent germination of TrigoCor spores: 10 mM germinant, mean ± standard deviation; for percent germination of spores as compared to control (in words): summary of Table 1, 10 mM
# Procedure: Bacillus starter cultures were grown in nutrient broth plus yeast extract (Crane et al. 2013), then were transferred 1:1000 to a modified Schaeffer's sporulation medium (Nicholson and Setlow 1990) containing per liter 2.012 g KCl, 0.492 g MgSO4. 7 H20, no NaOH, and 0.0197 g MnCl2.4H20, and grown for 72 h. All cultures were grown in 50 mL aliquots in beveled flasks at 37° C. with 225 RPM shaking. Liquid cultures were spun down at 4° C. for 10 min at 10,000 RCF, washed 10 times in cold deionized water, and resuspended in 5 mL cold deionized water. To remove vegetative cells, cultures were treated with lysozyme (final concentration 50 μg/mL) for 10 min on ice, followed by six rounds of 15 sec sonication on ice, then were washed twice with cold deionized water. Spore preparations were stored in deionized water at 4° C., and prior to use were washed once with cold deionzied water. Unless otherwise noted, spores were resuspended in 25 mM HEPES (Sigma-Aldrich, St. Louis, Mo.) pH 7.41 to produce a final concentration of 10^8 CFUs/mL. Purified spore cultures contained over 98% phase-bright spores and minimal cell debris, as verified through phase contrast microscopy.
# Terbium chloride (1 mM) (Sigma-Aldrich, St. Louis, Mo.) and all germinant solutions were prepared in 25 mM HEPES pH 7.41 and added as noted in individual experiments. 90 μL TrigoCor spores were mixed with 10 μL of each germinant (100 mM, final concentration 10 mM) and incubated in a 96-well plate (Thermo Scientific, Waltham, Mass.) at 37° C. for 1, 10, 30, 60, or 120 min. Samples were prepared so that all incubations finished simultaneously and were analyzed together. For each germinant tested, two spore-germinant mixtures were loaded per incubation time. Germinants tested were D-glucose, D-fructose, KBr, KCl, L-alanine, L-asparagine, L-proline, L-valine, and the germinant combination AGFK (equimolar concentrations of L-asparagine, D-glucose, D-fructose, and KCl), or HEPES as a control. Following addition of 100 μL terbium chloride to all samples, fluorescence was measured as explained below.
# At each plate reader measurement time, two 90 μL samples of spores autoclaved for 60 min mixed with 10 μL HEPES, as well as a sample containing a mixture of all germinants and HEPES, were added as additional samples in the plate and mixed with 100 μL terbium chloride. A final sample of pure deionized water was included in the plate as well, and these samples were measured alongside all other samples in the plate. Fluorescence was measured at 545 nm emission and 273 nm excitation according to Yi and Setlow (2010) using a Synergy 4 plate reader (Biotek Instruments Inc., Winooski, Vt.). […] Percent spore germination for each sample at each time point was calculated by dividing its relative fluorescence units (RFUs) by the corresponding average RFUs of the autoclaved cells, which have released all their dipicolinic acid (DPA) due to lysis (Yang and Ponce 2009) and provided in Table 1. Spore germination results were confirmed using phase contrast microscopy (data not shown).
# [2] = test system: TrigoCor spores; assay: Terbium chloride spore germination assay at 37° C., 10 or 100 mM germinant (Example 2); assay type: cell-based, Bacillus subtilis var. amyloliquefaciens; conditions: for Percent germination of TrigoCor spores: mean ± standard deviation; for percent germination of spores as compared to control (in words): summary of Table 2, 10 or 100 mM
# Procedure: The following protocol was performed as per Example 1, with the following modification:
# Terbium chloride (1 mM) (Sigma-Aldrich, St. Louis, Mo.) and all germinant solutions were prepared in 25 mM HEPES pH 7.41 and added as noted in individual experiments. 450 μL TrigoCor spores were mixed with 50 μL of each germinant (100 mM and 1 M, final concentrations 10 mM and 100 mM) and incubated at 37° C. Two samples were prepared for each germinant and germinants tested were D-glucose, L-alanine, AGFK, and an equimolar solution of glucose and alanine, or HEPES as a control. After 10, 30, 60, and 120 minutes of incubation, 100 μL was transferred from each tube to a 96-well plate. For an initial measurement of spore germination, two 100 μL samples of spores not mixed with germinants and kept at 4° C. were analyzed alongside the samples which had incubated for 10 minutes. Immediately following each sample time, 100 μL terbium chloride was added to all samples and fluorescence was measured as explained previously.
# Percent spore germination for each sample at each time point was calculated by dividing its relative fluorescence units (RFUs) by the corresponding average RFUs of the autoclaved cells, which have released all their dipicolinic acid (DPA) due to lysis (Yang and Ponce 2009) and provided in Table 2. Spore germination results were confirmed using phase contrast microscopy (data not shown).
# [3] = 10 mM germinant, incubation time 10 min
# [4] = 10 mM germinant, incubation time 30 min
# [5] = 10 mM germinant, incubation time 60 min
# [6] = 10 mM germinant, incubation time 120 min
# [7] = 100 mM germinant, incubation time 10 min
# [8] = 100 mM germinant, incubation time 30 min
# [9] = 100 mM germinant, incubation time 60 min
# [10] = 100 mM germinant, incubation time 120 min
Structure (SMILES),Percent germination of TrigoCor spores ([1]; incubation time 1 min) [%],Percent germination of TrigoCor spores ([1]; incubation time 10 min) [%],Percent germination of TrigoCor spores ([1]; incubation time 30 min) [%],Percent germination of TrigoCor spores ([1]; incubation time 60 min) [%],Percent germination of TrigoCor spores ([1]; incubation time 120 min) [%],percent germination of spores as compared to control (in words) [1],"Percent germination of TrigoCor spores [2, 3] [%]","Percent germination of TrigoCor spores [2, 4] [%]","Percent germination of TrigoCor spores [2, 5] [%]","Percent germination of TrigoCor spores [2, 6] [%]","Percent germination of TrigoCor spores [2, 7] [%]","Percent germination of TrigoCor spores [2, 8] [%]","Percent germination of TrigoCor spores [2, 9] [%]","Percent germination of TrigoCor spores [2, 10] [%]",percent germination of spores as compared to control (in words) [2]
CC(C)[C@H](N)C(=O)O [L-valine],1 ± 0,1 ± 0,1 ± 0,1 ± 0,1 ± 0,,,,,,,,,,
[Br-].[K+] [Potassium bromide],1 ± 0,1 ± 0,1 ± 0,1 ± 0,1 ± 0,,,,,,,,,,
C[C@H](N)C(=O)O [L-alanine],1 ± 0,4 ± 0,20 ± 1,23 ± 1,21 ± 0,increases,1 ± 0,13 ± 1,41 ± 1,43 ± 1,1 ± 0,47 ± 1,86 ± 3,90 ± 3,increases
O=C[C@H](O)[C@@H](O)[C@H](O)[C@H](O)CO [D-glucose],1 ± 0,1 ± 0,5 ± 0,10 ± 1,25 ± 1,increases,1 ± 0,5 ± 0,13 ± 1,28 ± 2,1 ± 0,7 ± 1,18 ± 2,34 ± 1,increases
[Cl-].[K+] [Potassium chloride],1 ± 0,1 ± 0,1 ± 0,1 ± 0,1 ± 0,,,,,,,,,,
NC(=O)C[C@H](N)C(=O)O [L-asparagine],1 ± 0,1 ± 0,1 ± 0,1 ± 0,1 ± 0,,,,,,,,,,
O=C(O)[C@@H]1CCCN1 [L-proline],1 ± 0,1 ± 0,1 ± 0,1 ± 0,1 ± 0,,,,,,,,,,
O=C(CO)[C@@H](O)[C@H](O)[C@H](O)CO [D-fructose],1 ± 0,1 ± 0,1 ± 0,1 ± 1,1 ± 1,,,,,,,,,,
